What was measured:
mushroom tyrosinase = assay: Tyrosinase inhibition assay; format: biochemical; details: for tyrosinase enzyme inhibition versus kojic acid: even at high concentrations (5%)
Experimental: Rosamox (0.1%, 0.05% and 0.01%), Lysofix dry (0.1%, 0.05% & 0.01%) and Chinese lantern oil (0.1%, 0.05%, 0.01% & 0.005%) were tested for inhibition of tyrosinase enzyme activity. Kojic acid (2%, 1% & 0.5%), β-arbutin (5%, 2%, 1% & 0.5%) and hydroquinone (5%, 2%, 1% & 0.5%) served as positive controls in this study. Rosamox and Chinese lantern oil samples were prepared in Dimethylsulfoxide (DMSO). Lysofix sample, positive controls, 3,4-dihydroxyphenyl-alanine (L-DOPA) and mushroom tyrosinase were prepared using 0.1 M phosphate buffer (pH-6.6).
Tyrosinase inhibition potential of natural ingredients was measured using a modified method published previously by Uchida et al^12. Briefly, the test samples or positive control (20 μL) were added to the reaction mixture containing 0.12 mL of 0.1 M potassium phosphate buffer (pH 6.6) in 96 well microplates and incubated at room temperature for 2 minutes. After 2 minutes of incubation, 40 μL of 10 mM L-DOPA solution was added to the reaction mixture and incubated for 5 minutes at 37° C. using a benchtop incubator (Fisher scientific, PA). Twenty microliters of mushroom tyrosinase (200 units/mL) was added to the above reaction mixture and incubated at 37° C. in a conventional lab incubator (Fisher Scientific, PA) for 10 minutes. The amount of dopachrome produced in the reaction mixture was measured spectrophotometrically using Spectramax Me5 plate reader at 475 nm. The tyrosinase activity and the % inhibition of tyrosinase in presence of test material were calculated as follows:
Tyrosinase activity=(S(Abs)−B(Abs))/C(Abs)×100
Inhibition (%)=1−{(S(Abs)−B(Abs))}/C(Abs)×100 Equation 1. • Formula for Measuring tyrosinase activity and % tyrosinase inhibition, where S(Abs)—sample absorbance; B(Abs)—Blank absorbance (Without enzyme) and C(Abs)—Control Absorbance [Buffer and DMSO].

[1] = system: murine melanoma cell model; details: cited from earlier work
[2] = system: melanocyte-keratinocyte co-culture (HEK001 keratinocytes and primary epidermal melanocytes); assay: Melanin inhibition in melanocyte-keratinocyte co-culture; format: cell-based, human
Experimental: Cell culture studies were performed using Human Epidermal Keratinocytes (HEK) continuous cell lines [HEK001 (ATCC® CRL-2404™) lot #61331463] and Primary epidermal melanocytes (ATCC PCS-200-013, lot #60948598). HEK cells were grown in the HEK growth media consisting of keratinocytes serum free medium (GIBCO-BRL 17005042, lot #1638561) with 5 ng/mL human recombinant epidermal growth factor (EGF) (ATCC, lot #1584416) and 2 mM L-glutamine (ATCC, lot #62195752) (without bovine pituitary extract and serum). HEK growth media was supplemented with penicillin (10000 units) and streptomycin (10 mg/mL) solution (Gibco, lot #1469707). Primary epidermal melanocytes growth media consisting of Dermal cell basal medium (ATCC PCS-200-030) with Melanocytes Growth kit [ATCC PCS-200-042] (rh Insulin 5 μg/mL, Ascorbic acid 50 μg/mL, L-glutamine 6 mM, Epinephrine calcium chloride 1.5 μM peptide growth factor and M8 supplement) and supplemented with penicillin (10 units/mL)-streptomycin (10 μg/mL)-Amphotericin B solution (25 ng/mL). […]
HEK cells were harvested by treatment with trypsin/EDTA solution and resuspended in HEK media. Viable cells were determined by trypan blue exclusion study and counted using a hemocytometer. […]

MelanoDerm tissue = assay: Microscopic observation of MelanoDerm tissue; format: cell-based, human; details: end of 21 days
Experimental: For visualization of treatment effect on tissue culture, microscopic observation of MelanoDerm tissue on day 1, 4, 10, 14 and finally on day 21 was carried out using glass bottom microwell dish with the help of benchtop inverted microscope (Nikon Inc., NY) at 20× magnification. Images were captured using Tucsen camera (Xintu Photonics Co., China) attached to the microscope.

With `Oc1ccc(O)cc1` [Hydroquinone, hydroquinone] the “tyrosinase enzyme inhibition versus kojic acid” value (mushroom tyrosinase) was “not as effective as kojic acid”.
For `CCCCC/C=C\C/C=C\CCCCCCCC(=O)O` [Linoleic acid], the “reduction of melanogenesis and amount of tyrosinase protein” value [1] is listed as “effective in reduction of melanogenesis”.
With `O=c1cc(CO)occ1O` [kojic acid, Kojic acid] the “tyrosinase enzyme inhibition compared to control” value (mushroom tyrosinase; all concentrations (0.5%, 1% and 2%)) was “effective in inhibiting tyrosinase enzyme”, the “melanin production compared to control” value ([2]; 2% (highest tested concentration), p<0.005) was “maximum effect” and the “melanin production compared to control” value ([2]; tested concentrations (2%, 1%, 0.5%), 5 days treatment) was “significant reduction in melanin production”. For the same molecule, the “melanin granules in microscopic images” value (MelanoDerm tissue; 0.5%) was “presence of some melanin granules” and the “melanin granules in microscopic images” value (MelanoDerm tissue; 1% and 2%) was “no sign of melanin granules”.
With `OC[C@H]1O[C@@H](Oc2ccc(O)cc2)[C@H](O)[C@@H](O)[C@@H]1O` [β-arbutin] the “tyrosinase enzyme inhibition versus kojic acid” value (mushroom tyrosinase) was “not as effective as kojic acid”.
